According to patent US20160235752A1, “COMPOSITIONS, METHODS OF USE, AND METHODS OF TREATMENT” (THE UNIVERSITY OF NEW ORLEANS, priority 2013, published 2016):
≈ marks a conversion by molar mass, not a printed value. Marks after values point to notes of the source that are not given here.

test system: Candida albicans (ATCC no. 10231); experiment: MIC determination by broth microdilution (NCCLS), visual scoring; assay type: cell-based; details: Candida albicans, ATCC10231, read-out: MIC80 C. albicans
Protocol: The antifungal activity of the 2,4,6-pyrimidinetrione analogs shown in Schemes 2-6 were evaluated in vitro using Candida albicans (ATCC no. 10231) and Candida glabrata (ATCC no 48435). All assays were done in accordance with NCCLS reference documents^29.
Master stock concentrations of all tested compounds were prepared to ensure that the maximum final concentration of DMSO was 1% or less. Subsequent 2-fold serial dilutions were made using sterile water to a final concentration of 1280-5.00 μg/ml. A final 10-fold dilution of each drug was made by aliquotting 0.1 mL of each drug dilution into 0.9 mL of fungal suspension in RPMI 1640 media with 10 mM HEPES buffer added (see methodology below), giving final concentrations tested in the range of 128-0.5 μg/ml.
Antifungal susceptibility studies and minimal inhibitory concentrations (MIC) values for Candida albicans (ATCC no. 10231) and Candida glabrata (ATCC no. 48435) were determined by the broth microdilution technique in accordance with NCCLS reference documents. Microdilution panels ranged from 0.5 to 128 μg/mL. All organisms were subcultured on Sabouraud agar and passaged to ensure purity and viability. The initiating inocula were prepared by picking 5-7 isolated colonies ˜1 mm in diameter from freshly prepared YM agar plates. Colonies were resuspended in sterile water, vortexed and the cell density was adjusted spectrophotometrically to the transmittance of a 0.5 McFarland standard at a wavelength of 530 nm, to yield a stock suspension of 1×10^6-5×10^6 cells/mL. The stock was allowed to hydrate for 30 minutes at room temperature. A working suspension was then made by diluting the stock 1:50 with RPMI 1640 media containing HEPES buffer. The working suspension was used for all assays. The plates were incubated at 35° C. for 48-72 hours in a humid atmosphere. Growth was scored visually. MIC values are defined as the lowest concentration of agent that prevents any discernible growth, ˜80% reduction of growth, as compared with drug-free control wells. All assays were run in parallel using either fluconazole or amphotericin B at the NCCLS recommended concentrations^29 as a drug control (Sigma-Aldrich).

| Compound | MIC80 |
| --- | --- |
| N/N=C/C1C(=O)NC(=O)NC1=O [BA116, 5-[(E)-hydrazinylidenemethyl]pyrimidine-2,4,6-trione] | 125 µg/mL (≈ 735 µM) |
| C/C(=N\N)C1C(=O)N(C)C(=O)N(C)C1=O [BA119, 5-[(1E)-1-hydrazinylideneethyl]-1,3-dimethylpyrimidine-2,4,6-trione] | > 125 µg/mL |
| C/C(=N\N)C1C(=O)NC(=O)NC1=O [BA118, 5-[(1E)-1-hydrazinylideneethyl]pyrimidine-2,4,6-trione] | > 125 µg/mL |
| CN/N=C/C1C(=O)NC(=O)NC1=O [BA120, 5-[(E)-(2-methylhydrazinylidene)methyl]pyrimidine-2,4,6-trione] | > 125 µg/mL |
| CN/N=C(\C)C1C(=O)N(C)C(=O)N(C)C1=O [BA123, 1,3-dimethyl-5-[(1E)-1-(2-methylhydrazinylidene)ethyl]pyrimidine-2,4,6(1H,3H,5H)-trione] | > 125 µg/mL |
| CN/N=C/C1C(=O)N(C)C(=O)N(C)C1=O [BA122, 1,3-dimethyl-5-[(E)-(2-methylhydrazinylidene)methyl]pyrimidine-2,4,6-trione] | 62 µg/mL (≈ 292 µM) |
| CN/N=C(\C)C1C(=O)NC(=O)NC1=O [BA121, 5-[(1E)-1-(2-methylhydrazinylidene)ethyl]pyrimidine-2,4,6-trione] | > 125 µg/mL |
| CN1C(=O)C(/C=N/N)C(=O)N(C)C1=O [BA117, 5-[(E)-hydrazinylidenemethyl]-1,3-dimethylpyrimidine-2,4,6-trione] | 125 µg/mL (≈ 631 µM) |

same assay, conditions: Table 2, 5-Arylidene-2,4,6-pyrimidinetriones

| Compound | MIC80 C. albicans |
| --- | --- |
| O=C1NC(=O)C(=CC=Cc2ccccc2)C(=O)N1 [BA42] | 62 µg/mL (≈ 256 µM) |

same assay, conditions: Table 5, Schiff Bases of 5-acylpyrimidinetriones

| Compound | MIC80 C. albicans |
| --- | --- |
| CN1C(=O)C(/C=N/n2cnnc2)C(=O)N(C)C1=O [BA110] | — (none of the 5-acyl-2,4,6-pyrimidinetriones, 5-alkylated pyrimidinetriones or the 5,5-dialkylated pyrimidinetriones showed antifungal activity through 125 μg/mL) |
| CN1C(=O)C(C=Nc2ccc([N+](=O)[O-])cc2)C(=O)N(C)C1=O [BA102] | — (none of the 5-acyl-2,4,6-pyrimidinetriones, 5-alkylated pyrimidinetriones or the 5,5-dialkylated pyrimidinetriones showed antifungal activity through 125 μg/mL) |
| COc1ccc(N=C(C)C2C(=O)NC(=O)NC2=O)cc1 [BA100] | — (none of the 5-acyl-2,4,6-pyrimidinetriones, 5-alkylated pyrimidinetriones or the 5,5-dialkylated pyrimidinetriones showed antifungal activity through 125 μg/mL) |
| O=C1NC(=O)C(C=Nc2ccccn2)C(=O)N1 [BA103] | — (none of the 5-acyl-2,4,6-pyrimidinetriones, 5-alkylated pyrimidinetriones or the 5,5-dialkylated pyrimidinetriones showed antifungal activity through 125 μg/mL) |
| CN1C(=O)C(/C=N/c2nnc[nH]2)C(=O)N(C)C1=O [BA108] | — (none of the 5-acyl-2,4,6-pyrimidinetriones, 5-alkylated pyrimidinetriones or the 5,5-dialkylated pyrimidinetriones showed antifungal activity through 125 μg/mL) |
| CN1C(=O)C(C=Nc2ccccn2)C(=O)N(C)C1=O [BA104] | — (none of the 5-acyl-2,4,6-pyrimidinetriones, 5-alkylated pyrimidinetriones or the 5,5-dialkylated pyrimidinetriones showed antifungal activity through 125 μg/mL) |
| O=C1NC(=O)C(C=Nc2ccc([N+](=O)[O-])cc2)C(=O)N1 [BA101] | — (none of the 5-acyl-2,4,6-pyrimidinetriones, 5-alkylated pyrimidinetriones or the 5,5-dialkylated pyrimidinetriones showed antifungal activity through 125 μg/mL) |
| CN1C(=O)C(C=Nc2ccc(-c3ccccc3)cc2)C(=O)N(C)C1=O [BA106] | — (none of the 5-acyl-2,4,6-pyrimidinetriones, 5-alkylated pyrimidinetriones or the 5,5-dialkylated pyrimidinetriones showed antifungal activity through 125 μg/mL) |
| COc1ccc(N=CC2C(=O)N(C)C(=O)N(C)C2=O)cc1 [BA98] | — (none of the 5-acyl-2,4,6-pyrimidinetriones, 5-alkylated pyrimidinetriones or the 5,5-dialkylated pyrimidinetriones showed antifungal activity through 125 μg/mL) |
| O=C1NC(=O)C(/C=N/c2ccc(-c3ccccc3)cc2)C(=O)N1 [BA105] | — (none of the 5-acyl-2,4,6-pyrimidinetriones, 5-alkylated pyrimidinetriones or the 5,5-dialkylated pyrimidinetriones showed antifungal activity through 125 μg/mL) |
| COc1ccc(N=CC2C(=O)NC(=O)NC2=O)cc1 [BA97] | — (none of the 5-acyl-2,4,6-pyrimidinetriones, 5-alkylated pyrimidinetriones or the 5,5-dialkylated pyrimidinetriones showed antifungal activity through 125 μg/mL) |
| O=C1NC(=O)C(/C=N/C2N=NN=N2)C(=O)N1 [BA111] | — (none of the 5-acyl-2,4,6-pyrimidinetriones, 5-alkylated pyrimidinetriones or the 5,5-dialkylated pyrimidinetriones showed antifungal activity through 125 μg/mL) |
| O=C1NC(=O)C(/C=N/c2nnc[nH]2)C(=O)N1 [BA107] | — (none of the 5-acyl-2,4,6-pyrimidinetriones, 5-alkylated pyrimidinetriones or the 5,5-dialkylated pyrimidinetriones showed antifungal activity through 125 μg/mL) |
| COc1ccc(N=C(C)C2C(=O)N(C)C(=O)N(C)C2=O)cc1 [BA99] | — (none of the 5-acyl-2,4,6-pyrimidinetriones, 5-alkylated pyrimidinetriones or the 5,5-dialkylated pyrimidinetriones showed antifungal activity through 125 μg/mL) |
| O=C1NC(=O)C(/C=N/n2cnnc2)C(=O)N1 [BA109] | — (none of the 5-acyl-2,4,6-pyrimidinetriones, 5-alkylated pyrimidinetriones or the 5,5-dialkylated pyrimidinetriones showed antifungal activity through 125 μg/mL) |

same assay, conditions: Table 8, N-Acylhydrazones of 5-Acylpyrimidinetriones

| Compound | MIC80 C. albicans |
| --- | --- |
| COc1ccc(C(=O)N/N=C/C2C(=O)NC(=O)NC2=O)cc1 [BA132] | — (none of the 5-acyl-2,4,6-pyrimidinetriones, 5-alkylated pyrimidinetriones or the 5,5-dialkylated pyrimidinetriones showed antifungal activity through 125 μg/mL) |
| COc1ccc(C(=O)NN=C(C)C2C(=O)NC(=O)NC2=O)cc1 [BA134] | — (none of the 5-acyl-2,4,6-pyrimidinetriones, 5-alkylated pyrimidinetriones or the 5,5-dialkylated pyrimidinetriones showed antifungal activity through 125 μg/mL) |
| COc1ccc(C(=O)NN=C(C)C2C(=O)N(C)C(=O)N(C)C2=O)cc1 [BA135] | — (none of the 5-acyl-2,4,6-pyrimidinetriones, 5-alkylated pyrimidinetriones or the 5,5-dialkylated pyrimidinetriones showed antifungal activity through 125 μg/mL) |
| C/C(=N\NC(=O)c1ccccc1)C1C(=O)NC(=O)NC1=O [BA126] | — (none of the 5-acyl-2,4,6-pyrimidinetriones, 5-alkylated pyrimidinetriones or the 5,5-dialkylated pyrimidinetriones showed antifungal activity through 125 μg/mL) |
| CC(=NNC(=O)c1ccccc1)C1C(=O)N(C)C(=O)N(C)C1=O [BA127] | — (none of the 5-acyl-2,4,6-pyrimidinetriones, 5-alkylated pyrimidinetriones or the 5,5-dialkylated pyrimidinetriones showed antifungal activity through 125 μg/mL) |
| CN1C(=O)C(/C=N/NC(=O)c2ccccc2)C(=O)N(C)C1=O [BA125] | — (none of the 5-acyl-2,4,6-pyrimidinetriones, 5-alkylated pyrimidinetriones or the 5,5-dialkylated pyrimidinetriones showed antifungal activity through 125 μg/mL) |

same assay, conditions: Table 8, values marked * (no footnote in this table)

| Compound | MIC80 C. albicans |
| --- | --- |
| CN1C(=O)C(/C=N/NC(=O)c2ccc([N+](=O)[O-])cc2)C(=O)N(C)C1=O [BA129] | 62* μg/mL |
| O=C1NC(=O)C(/C=N/NC(=O)c2ccc([N+](=O)[O-])cc2)C(=O)N1 [BA128] | 62* μg/mL |
| COc1ccc(C(=O)N/N=C/C2C(=O)N(C)C(=O)N(C)C2=O)cc1 [BA133] | 62* μg/mL |

same assay, conditions: Table 9, Benzenesuifonohydrazones of 5-Acylpyrimidinetrione

| Compound | MIC80 C. albicans |
| --- | --- |
| O=C1NC(=O)C(C=NNS(=O)(=O)c2ccccc2)C(=O)N1 [BA136] | — (none of the 5-acyl-2,4,6-pyrimidinetriones, 5-alkylated pyrimidinetriones or the 5,5-dialkylated pyrimidinetriones showed antifungal activity through 125 μg/mL) |
| Cc1ccc(S(=O)(=O)N/N=C/C2C(=O)N(C)C(=O)N(C)C2=O)cc1 [BA115] | — (none of the 5-acyl-2,4,6-pyrimidinetriones, 5-alkylated pyrimidinetriones or the 5,5-dialkylated pyrimidinetriones showed antifungal activity through 125 μg/mL) |
| C/C(=N\NS(=O)(=O)c1ccc(C)cc1)C1C(=O)NC(=O)NC1=O [BA114] | — (none of the 5-acyl-2,4,6-pyrimidinetriones, 5-alkylated pyrimidinetriones or the 5,5-dialkylated pyrimidinetriones showed antifungal activity through 125 μg/mL) |
| CN1C(=O)C(C=NNS(=O)(=O)c2ccccc2)C(=O)N(C)C1=O [BA137] | — (none of the 5-acyl-2,4,6-pyrimidinetriones, 5-alkylated pyrimidinetriones or the 5,5-dialkylated pyrimidinetriones showed antifungal activity through 125 μg/mL) |
| C/C(=N\NS(=O)(=O)c1ccccc1)C1C(=O)N(C)C(=O)N(C)C1=O [BA139] | — (none of the 5-acyl-2,4,6-pyrimidinetriones, 5-alkylated pyrimidinetriones or the 5,5-dialkylated pyrimidinetriones showed antifungal activity through 125 μg/mL) |
| C/C(=N\NS(=O)(=O)c1ccccc1)C1C(=O)NC(=O)NC1=O [BA138] | — (none of the 5-acyl-2,4,6-pyrimidinetriones, 5-alkylated pyrimidinetriones or the 5,5-dialkylated pyrimidinetriones showed antifungal activity through 125 μg/mL) |

same assay, conditions: Table 9, value marked ** (footnote not given)

| Compound | MIC80 C. albicans |
| --- | --- |
| Cc1ccc(S(=O)(=O)N/N=C/C2C(=O)NC(=O)NC2=O)cc1 [BA113] | 16** μg/mL |
